Laboratory results taken from patent US20260193170A1 (University of Copenhagen, priority 2022, published 2026).

Target: T1, human Keap1 Kelch domain (Homo sapiens, UniProt Q14145)
T1 construct: human Keap1 Kelch domain (residue 321-609, UniProt Q14145); made in house; host or cells: Escherichia coli BL21 (DE3) pLysS, pRSET A vector
Assay: Fluorescence polarization (FP) competition assay, Cy5-Nrf2 peptide probe
Format: binding
Settings: heterologous competition FP; Keap1 Kelch 14 nM, Cy5-Nrf2 probe 3 nM, 4% DMSO; mean ± SEM
Experimental: The binding affinities between the fluorescent peptide probe Cy5-Nrf2 (SEQ: Cy5-[…]-NH2) and the human Keap1 Kelch domain were determined as Kd values by saturation binding experiments, where increasing concentrations of Keap1 (0-300 nM) were added to a fixed concentration of peptide probe (3 nM). The assay was performed in a 1× HBSTET buffer (10 mM HEPES, 150 mM NaCl, 0.005% Tween20, 3 mM ethylenediaminetetraacetic acid (EDTA), 1 mM TCEP, pH=7.4) using black flat-bottom 384-well plates (Corning Life Sciences, NY), a volume of 30 μL/well, and a final DMSO concentration of 4% or 8%. The assay plate was spun down to ascertain proper mixing and removal of potential air bubbles and incubated for 10-15 min at room temperature before measuring the FP levels on a Safire2 plate reader (Tecan, Mannedorf, Switzerland). The g-factor was adjusted at each experiment so that a series of three blank wells containing probe but no Keap1 Kelch defined the baseline FP value. The Cy5-Nrf2 probe was measured at excitation/emission values of 635:670 nm. The FP values were fitted to the one-site specific binding equation: Y=Bmax×X/(Kd+X), with Bmax being the maximal FP value, X the Keap1 Kelch concentration, and Y the variable FP values. The Kd values were derived from the resulting binding saturation curve as being equal to the Keap1 Kelch concentration, where the curve is half-saturated.
The affinities between nonfluorescent small molecule Keap1 inhibitors and Keap1 Kelch were determined as Ki values in a heterologous competition FP binding assay. This was done by adding increasing concentration of test compound (2-fold serial dilutions, 12 concentrations tested per inhibition curve as duplicates) to a fixed concentration of Keap1 Kelch (14 nM) and the Cy5-Nrf2 peptide probe (3 nM) in the same HBSTET buffer and conditions as described above (final DMSO concentrations were 4%). FP values were fitted to the equation Y=Bottom+(Top−Bottom)/[1+(10^HillSlope×(log IC50−X))], where X is the logarithmic value of compound concentration. Hereby, the IC50 value was obtained, which together with the […] value and probe and Keap1 Kelch concentrations was used to calculate the theoretical competitive inhibition constant, the Ki value. 43 Ki values are shown as mean±SEM (standard error of mean) if based on two or more individual measurements.

T1 sequence (Q14145 321-609): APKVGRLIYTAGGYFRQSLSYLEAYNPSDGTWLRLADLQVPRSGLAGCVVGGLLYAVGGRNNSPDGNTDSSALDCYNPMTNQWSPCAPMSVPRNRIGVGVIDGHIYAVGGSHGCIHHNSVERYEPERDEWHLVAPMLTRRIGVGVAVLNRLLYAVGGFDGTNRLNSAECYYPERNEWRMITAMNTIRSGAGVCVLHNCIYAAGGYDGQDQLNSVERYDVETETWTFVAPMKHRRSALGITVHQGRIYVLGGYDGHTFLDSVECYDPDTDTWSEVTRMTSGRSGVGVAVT

SMILES	Ki [µM]
COc1cc(C)c(C(CC(=O)O)c2ccc3ccc(OCC(=O)NC4CCCCC4)cc3c2)c(C)c1 (stereo not drawn) [3c, 3-(7-(2-(cyclohexylamino)-2-oxoethoxy)naphthalen-2-yl)-3-(4-methoxy-2,6-dimethylphenyl)propanoic acid]	0.168 ± 0.003
O=C(O)CC(c1cccc(Cl)c1)c1ccc2ccc(OCC(=O)NC3CCCCC3)cc2c1 (stereo not drawn) [3d, 3-(3-chlorophenyl)-3-(7-(2-(cyclohexylamino)-2-oxoethoxy)naphthalen-2-yl)propanoic acid]	0.47 ± 0.047
Cc1c(Cl)cccc1C(CC(=O)O)c1ccc2ccc(OCC(=O)NC3CCCCC3)cc2c1 (stereo not drawn) [3e, 3-(3-chloro-2-methylphenyl)-3-(7-(2-(cyclohexylamino)-2-oxoethoxy)naphthalen-2-yl)propanoic acid]	0.066 ± 0.006
O=C(O)CC(c1ccc2c(c1)CCO2)c1ccc2ccc(OCC(=O)NC3CCCCC3)cc2c1 (stereo not drawn) [3i, 3-(7-(2-(cyclohexylamino)-2-oxoethoxy)naphthalen-2-yl)-3-(2,3-dihydrobenzofuran-5-yl)propanoic acid]	0.082 ± 0.008
CC1(C)Oc2ccc(C(CC(=O)O)c3ccc4ccc(OCC(=O)NC5CCCCC5)cc4c3)cc2O1 (stereo not drawn) [3j, 3-(7-(2-(cyclohexylamino)-2-oxoethoxy)naphthalen-2-yl)-3-(2,2-dimethylbenzo[d][1,3]dioxol-5-yl)propanoic acid]	0.14 ± 0.011
COc1ccc(C)c(C(CC(=O)O)c2ccc3ccc(OCC(=O)NC4CCCCC4)cc3c2)c1 (stereo not drawn) [3m, 3-(7-(2-(cyclohexylamino)-2-oxoethoxy)naphthalen-2-yl)-3-(5-methoxy-2-methylphenyl)propanoic acid]	0.15 ± 0.014
Cc1nc2[nH]ccc2cc1C(CC(=O)O)c1ccc2ccc(OCC(=O)NC3CCCCC3)cc2c1 (stereo not drawn) [3n, 3-(7-(2-(cyclohexylamino)-2-oxoethoxy)naphthalen-2-yl)-3-(6-methyl-1H-pyrrolo[2,3-b]pyridin-5-yl)propanoic acid]	0.129 ± 0.013
O=C(O)CC(c1ccc2ccc(OCC(=O)NC3CCCCC3)cc2c1)c1ccc2occc2c1 (stereo not drawn) [3o, 3-(Benzofuran-5-yl)-3-(7-(2-(cyclohexylamino)-2-oxoethoxy)naphthalen-2-yl)propanoic acid]	0.068 ± 0.012
Cc1ccc(Cl)cc1C(CC(=O)O)c1ccc2ccc(OCC(=O)NC3CCCCC3)cc2c1 (stereo not drawn) [3p, 3-(5-Chloro-2-methylphenyl)-3-(7-(2-(cyclohexylamino)-2-oxoethoxy)naphthalen-2-yl)propanoic acid]	0.234 ± 0.04

Stronger by Ki, values ahead:

Ki [µM]	SMILES
0.059 ± 0.006	O=C(O)CC(c1ccc2c(c1)OCO2)c1ccc2ccc(OCC(=O)NC3CCCCC3)cc2c1 (stereo not drawn) [3f, 3-(benzo[d][1,3]dioxol-5-yl)-3-(7-(2-(cyclohexylamino)-2-oxoethoxy)naphthalen-2-yl)propanoic acid]
0.054	COc1ccc(C(CC(=O)O)c2ccc3ccc(OCC(=O)NC4CCCCC4)cc3c2)c(C)c1 (stereo not drawn) [3b, 3-(7-(2-(cyclohexylamino)-2-oxoethoxy)naphthalen-2-yl)-3-(4-methoxy-2-methylphenyl)propanoic acid]
0.052 ± 0.003	O=C(O)CC(c1ccc2c(c1)OC(F)(F)O2)c1ccc2ccc(OCC(=O)NC3CCCCC3)cc2c1 (stereo not drawn) [3k, 3-(7-(2-(cyclohexylamino)-2-oxoethoxy)naphthalen-2-yl)-3-(2,2-difluorobenzo[d][1,3]dioxol-5-yl)propanoic acid]
0.029 ± 0.001	O=C(O)CC(c1ccc2c(c1)OCCO2)c1ccc2ccc(OCC(=O)NC3CCCCC3)cc2c1 (stereo not drawn) [3l, 3-(7-(2-(cyclohexylamino)-2-oxoethoxy)naphthalen-2-yl)-3-(2,3-dihydrobenzo[b][1,4]dioxin-6-yl)propanoic acid]
0.018 ± 0.006	Cc1cc2c(cc1C(CC(=O)O)c1ccc3ccc(OCC(=O)NC4CCCCC4)cc3c1)OCO2 (stereo not drawn) [3g, 3-(7-(2-(cyclohexylamino)-2-oxoethoxy)naphthalen-2-yl)-3-(6-methylbenzo[d][1,3]dioxol-5-yl)propanoic acid]
0.0048 ± 0.001	CCn1nnc2c(C)c(C(CC(=O)O)c3ccc4ccc(OCC(=O)NC5CCCCC5)cc4c3)ccc21 (stereo not drawn) [3h, 3-(7-(2-(cyclohexylamino)-2-oxoethoxy)naphthalen-2-yl)-3-(1-ethyl-4-methyl-1H-benzo[d][1,2,3]triazol-5-yl)propanoic acid]
